Assay results reported in patent US4146614A, “Threonyl-valyline leucine containing peptides and pharmaceutical compositions” (State of Michigan, priority 1977, dated 1979).
Non-standard residues stand in square brackets, D forms with d. Residues, ends and D or L forms follow the SMILES beside them. *: point of attachment. Bn = c1ccc(C*)cc1

Experiments:
tryptophan uptake = assay: Tryptophan uptake inhibition (tryptophan uptake method)
Description: Each of the resultant 10 fractions is assayed according to the tryptophan uptake method described in Biological Psychiatry, Vol. 7, No. 1, p. 53, (1973) as an indication of the amount of anti-S protein factor therein.
Tryptophan uptake are also conducted for the tested polypeptides. The tryptophan uptake inhibition is determined at 10 minutes.

alpha-helical S-protein = assay: Intracranial self-stimulation (bar pressing) in rats given alpha-helical S-protein; format: in vivo; conditions: for Bar Presses Restoration %: alpha-helical S-protein intercisternally, polypeptide 0.2 mg/kg intramuscularly
[1] = tested on: S-protein of schizophrenics; assay: Conversion of alpha-helical S-protein to random chain conformation; format: biochemical, human
[2] = Activity useful for alleviating the symptoms of schizophrenia (test not specified)
Description: Following essentially the same procedures as described above, N-acetyl-tyrosylthreonylvalylleucine, prolylthreonylvalylleucylprolylglycine are tested to determine their effect on rats which have been administered the alpha-helical S-protein.

With `CC(C)C[C@H](NC(=O)[C@@H](NC(=O)[C@@H](NC(=O)[C@@H](C)N)[C@@H](C)O)C(C)C)C(=O)O` [D-Alanyl-L-threonyl-L-valyl-L-leucine] (H-[dA]TVL-OH) the “duration of tryptophan uptake inhibition (in words)” value (tryptophan uptake; 10, 15 and 30 minutes) was “after a period of time the inhibition of tryptophan uptake may be diminished”, the “Tryptophan Uptake Inhibition %” value (tryptophan uptake; 15 min.) was 16% and the “Tryptophan Uptake Inhibition %” value (tryptophan uptake; 30 min.) was 0%. For the same compound, the “Tryptophan Uptake Inhibition %” value (tryptophan uptake; determined at 10 minutes) was 15%.
In the case of `NCC(=O)NCC(=O)NCC(=O)O` [Glycylglycylglycine, reference compound] (H-Gly-Gly-Gly-OH), the “Bar Presses Restoration %” value (alpha-helical S-protein; rats) is reported as 3% and the “Tryptophan Uptake Inhibition %” value (tryptophan uptake; determined at 10 minutes) is reported as 0%.
With `CC(C)C[C@H](NC(=O)[C@@H](NC(=O)[C@@H](NC(=O)CN)[C@@H](C)O)C(C)C)C(=O)O` [Glycylthreonylvalylleucine] (H-GTVL-OH) the “Bar Presses Restoration %” value (alpha-helical S-protein; rats) was 100% and the “Tryptophan Uptake Inhibition %” value (tryptophan uptake; determined at 10 minutes) was 24.3%.
For `CC(C)C[C@@H](NC(=O)[C@@H](NC(=O)[C@@H](N)[C@@H](C)O)C(C)C)C(=O)O` [L-Threonyl-L-valyl-D-leucine] (H-Thr-Val-[dL]-OH), the “Tryptophan Uptake Inhibition %” value (tryptophan uptake; 15 min.) was 18%, the “Tryptophan Uptake Inhibition %” value (tryptophan uptake; 30 min.) was 21% and the “Tryptophan Uptake Inhibition %” value (tryptophan uptake; determined at 10 minutes) was 12%.
With `CC(C)C[C@H](NC(=O)[C@@H](NC(=O)[C@@H](N)[C@@H](C)O)C(C)C)C(=O)N[C@H](C)C(=O)O` [L-Threonyl-L-valyl-L-leucyl-D-alanine] (H-TVL[dA]-OH) the “tryptophan uptake activity (in words)” value (tryptophan uptake) was “without significant tryptophan uptake activity” and the “Tryptophan Uptake Inhibition %” value (tryptophan uptake; determined at 10 minutes) was 2%.
For `CC(=O)N[C@H](C(=O)N[C@H](C(=O)N[C@@H](CC(C)C)C(N)=O)C(C)C)[C@@H](C)O` [N-Acetyl-threonylvalylleucinamide] (Ac-Thr-Val-Leu-NH2), the “Bar Presses Restoration %” value (alpha-helical S-protein; rats) was 100% and the “Tryptophan Uptake Inhibition %” value (tryptophan uptake; determined at 10 minutes) was 56.5%.
In the case of `CC(=O)N[C@H](C(=O)N[C@H](C(=O)N[C@@H](CC(C)C)C(=O)O)C(C)C)[C@@H](C)O` [N-Acetyl-threonylvalylleucine] (Ac-Thr-Val-Leu-OH), the “Bar Presses Restoration %” value (alpha-helical S-protein; rats) is reported as 100% and the “Tryptophan Uptake Inhibition %” value (tryptophan uptake; determined at 10 minutes) is reported as 20.2%.
For `CC(C)C[C@H](NC(=O)[C@@H](NC(=O)[C@@H](N)[C@@H](C)OCc1ccccc1)C(C)C)C(N)=O` [O-Benzyl-threonylvalylleucinamide] (H-Thr(Bn)-Val-Leu-NH2), the “Bar Presses Restoration %” value (alpha-helical S-protein; rats) was “toxic” and the “Tryptophan Uptake Inhibition %” value (tryptophan uptake; determined at 10 minutes) was 0%.
In the case of `CC(C)C[C@H](NC(=O)[C@@H](NC(=O)[C@@H](NC(=O)[C@@H]1CCCN1C(=O)[C@@H](N)Cc1ccccc1)[C@@H](C)O)C(C)C)C(=O)N1CCC[C@H]1C(=O)N[C@@H](Cc1ccccc1)C(=O)O` [Phenylalanylprolylthreonylvallylleucylprolyl phenylalanine] (H-FPTVLPF-OH), the “Bar Presses Restoration %” value (alpha-helical S-protein; rats) is reported as 100% and the “Tryptophan Uptake Inhibition %” value (tryptophan uptake; determined at 10 minutes) is reported as 39.5%.
With `CC(C)C[C@H](NC(=O)[C@@H](NC(=O)[C@@H](NC(=O)[C@@H]1CCCN1)[C@@H](C)O)C(C)C)C(=O)N1CCC[C@H]1C(=O)NCC(=O)O` [Prolylthreonylvalylleucylprolylgylcine] (H-PTVLPG-OH) the “restoration of the bar pressing activity of the rats (in words)” value (alpha-helical S-protein; rats administered the alpha-helical S-protein) was “restores the bar pressing activity of the rats” and the “Tryptophan Uptake Inhibition %” value (tryptophan uptake; determined at 10 minutes) was 44.2%.
In the case of `CC[C@H](C)[C@H](NC(=O)[C@@H](NC(=O)[C@@H](N)[C@@H](C)O)C(C)C)C(=O)O` [Threonylvalylisoleucine] (H-Thr-Val-Ile-OH), the “Bar Presses Restoration %” value (alpha-helical S-protein; rats) is reported as 41% and the “Tryptophan Uptake Inhibition %” value (tryptophan uptake; determined at 10 minutes) is reported as 5.6%.
For `CC(C)C[C@H](NC(=O)[C@@H](NC(=O)[C@@H](N)[C@@H](C)O)C(C)C)C(N)=O` [Threonylvalylleucinamide] (H-Thr-Val-Leu-NH2), the “Bar Presses Restoration %” value (alpha-helical S-protein; rats) was 90% and the “Tryptophan Uptake Inhibition %” value (tryptophan uptake; determined at 10 minutes) was 21.6%.
With `CC(C)C[C@H](NC(=O)[C@@H](NC(=O)[C@@H](N)[C@@H](C)O)C(C)C)C(=O)O` [Threonylvalylleucine] (H-Thr-Val-Leu-OH) the “period of effectiveness in counteracting the effect of the S-protein” value (alpha-helical S-protein; rats) was “of short duration”, the “Bar Presses Restoration %” value (alpha-helical S-protein; rats) was 85% and the “activity against the S-protein of schizophrenics (conformation change, in words)” value [1] was “the alpha-helical conformation of the S-protein is converted to the random form”. For the same compound, the “Tryptophan Uptake Inhibition %” value (tryptophan uptake; determined at 10 minutes) was 19.8%.
In the case of `CC(C)C[C@H](NC(=O)[C@@H](NC(=O)[C@@H](N)[C@@H](C)O)C(C)C)C(=O)N[C@@H](CCCNC(=N)N)C(=O)O` [threonylvalylleucylarginine] (H-TVLR-OH), the “activity useful for alleviating the symptoms of schizophrenia (in words)” value [2] is reported as “exhibiting activity useful for alleviating the symptoms of schizophrenia”.
In the case of “N-α-Acetyl-Threonylvalyleucine, methyl ester”, the “Tryptophan Uptake Inhibition %” value (tryptophan uptake; determined at 10 minutes) is reported as 24.2%.
